Assay results taken from patent US20260297085A1, “1 H-PYRROLO[2,3-B]PYRIDIN-4-YL]-2-OXOPYRROLIDINE-3-CARBONITRILE DERIVATIVES AS TYROSINE KINASE 2 (TYK2) INHIBITORS FOR THE TREATMENT OF INFLAMMATORY DISEASES” (BIOGEN MA INC., priority 2023, published 2026).
pIC50: −log10 of the molar value. Counter-ions that a name gives are not always drawn. Blank lines part the entries; values can stand above or below the compound they belong to.

How the values were obtained:
[1] = biological target: T1, human JAK2 kinase domain (JH1) (Homo sapiens, UniProt O60674); assay: JH1 biochemical assay for JAK2 (ADP-Glo kinase assay, recombinant JH1 catalytic domain, JAK3-974 peptide, 15 μM ATP); conditions: JH1 kinase domain, ADP-Glo
T1 construct: recombinantly generated catalytic kinase (also known as JH1) domain of human JAK1, JAK2, JAK3 and TYK2
T1 sequence (O60674 849-1124 limits assumed): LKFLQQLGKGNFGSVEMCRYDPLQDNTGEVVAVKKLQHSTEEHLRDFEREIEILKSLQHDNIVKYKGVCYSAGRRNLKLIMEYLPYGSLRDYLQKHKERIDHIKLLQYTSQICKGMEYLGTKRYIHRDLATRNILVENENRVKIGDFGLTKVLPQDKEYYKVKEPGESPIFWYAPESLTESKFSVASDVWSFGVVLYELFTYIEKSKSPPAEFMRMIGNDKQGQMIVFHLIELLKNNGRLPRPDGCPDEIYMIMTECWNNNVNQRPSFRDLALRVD
Outline: (§1)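 Reactions ran 100 min with 50 μM substrate peptide (JAK3-342 for JAK1 at 4 nM enzyme; JAK3-974 for JAK2 0.2 nM, JAK3 0.3 nM, TYK2 2 nM), and ADP formed was read by ADP-Glo luminescence. Eleven-point 3-fold series from 10 or 1 μM; IC50 fitted by 4-parameter logistic model.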

[2] = biological target: T2, human TYK2 kinase domain (JH1) (Homo sapiens, UniProt P29597); assay: JH1 biochemical assay for TYK2 (ADP-Glo kinase assay, recombinant JH1 catalytic domain, JAK3-974 peptide, 10 μM ATP); conditions: JH1 kinase domain, ADP-Glo
T2 construct: recombinantly generated catalytic kinase (also known as JH1) domain of human JAK1, JAK2, JAK3 and TYK2
T2 sequence (P29597 897-1176 limits assumed): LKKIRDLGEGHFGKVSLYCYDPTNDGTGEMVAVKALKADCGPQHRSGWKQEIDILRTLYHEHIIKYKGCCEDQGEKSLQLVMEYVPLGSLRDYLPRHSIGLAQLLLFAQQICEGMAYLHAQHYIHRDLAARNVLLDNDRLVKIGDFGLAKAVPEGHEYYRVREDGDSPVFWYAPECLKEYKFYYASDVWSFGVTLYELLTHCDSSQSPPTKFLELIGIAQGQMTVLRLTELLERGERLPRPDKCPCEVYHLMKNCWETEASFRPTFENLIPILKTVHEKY
Outline: as §1

[3] = biological target: JAK2 kinase activity on STAT5 in TF1 cells (Homo sapiens, UniProt O60674); assay: pSTAT5 cell assay (MSD; TF1 cells, 30 ng/mL IL-3 stimulation); type: cell-based; conditions: 30 ng/mL IL-3, 15 minutes
Chain of JAK2 kinase activity on STAT5 in TF1 cells (O60674 whole entry): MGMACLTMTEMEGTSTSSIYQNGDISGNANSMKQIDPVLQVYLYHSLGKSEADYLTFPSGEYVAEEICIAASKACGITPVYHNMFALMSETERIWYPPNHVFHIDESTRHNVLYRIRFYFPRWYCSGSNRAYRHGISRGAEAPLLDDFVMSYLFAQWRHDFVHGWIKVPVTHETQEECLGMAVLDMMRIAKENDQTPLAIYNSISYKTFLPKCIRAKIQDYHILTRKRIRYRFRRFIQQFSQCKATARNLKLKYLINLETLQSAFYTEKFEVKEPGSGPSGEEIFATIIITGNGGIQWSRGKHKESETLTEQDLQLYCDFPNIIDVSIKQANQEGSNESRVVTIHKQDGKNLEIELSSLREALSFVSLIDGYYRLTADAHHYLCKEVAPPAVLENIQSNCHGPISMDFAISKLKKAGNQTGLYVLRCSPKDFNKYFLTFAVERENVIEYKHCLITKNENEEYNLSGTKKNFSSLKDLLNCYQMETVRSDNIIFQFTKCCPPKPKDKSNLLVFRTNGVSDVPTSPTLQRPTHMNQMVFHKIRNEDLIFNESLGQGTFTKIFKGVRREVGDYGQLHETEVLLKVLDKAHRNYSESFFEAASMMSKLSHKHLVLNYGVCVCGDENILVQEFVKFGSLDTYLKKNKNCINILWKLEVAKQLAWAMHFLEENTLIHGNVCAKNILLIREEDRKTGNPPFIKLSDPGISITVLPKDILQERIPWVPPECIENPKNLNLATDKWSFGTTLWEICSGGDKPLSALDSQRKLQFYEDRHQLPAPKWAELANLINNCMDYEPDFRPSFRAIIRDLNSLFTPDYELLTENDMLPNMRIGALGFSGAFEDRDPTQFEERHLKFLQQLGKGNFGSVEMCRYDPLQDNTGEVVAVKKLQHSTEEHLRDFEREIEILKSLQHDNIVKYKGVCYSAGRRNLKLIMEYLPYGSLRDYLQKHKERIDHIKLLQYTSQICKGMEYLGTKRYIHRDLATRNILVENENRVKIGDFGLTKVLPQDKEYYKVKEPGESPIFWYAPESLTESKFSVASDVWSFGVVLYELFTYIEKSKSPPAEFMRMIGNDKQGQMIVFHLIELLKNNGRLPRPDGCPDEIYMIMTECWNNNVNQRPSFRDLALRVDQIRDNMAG
Outline: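 Serum-starved TF1 cells with native JAK2/STAT5 were pretreated 1 h with compound (10-point four-fold dilutions from 10 μM), then stimulated 15 min with 30 ng/mL IL-3. pSTAT5 in lysates quantified by MSD immunoassay; normalized percent activity fitted to a 4-parameter logistic curve for IC50.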

[4] = biological target: Tyk2 kinase activity on STAT4 in NK92 cells (Homo sapiens, UniProt P29597); assay: pSTAT4 cell assay (MSD; NK92 cells, 30 ng/mL IL2 stimulation); type: cell-based; conditions: 30 ng/mL IL2, 15 minutes
Chain of Tyk2 kinase activity on STAT4 in NK92 cells (P29597 whole entry): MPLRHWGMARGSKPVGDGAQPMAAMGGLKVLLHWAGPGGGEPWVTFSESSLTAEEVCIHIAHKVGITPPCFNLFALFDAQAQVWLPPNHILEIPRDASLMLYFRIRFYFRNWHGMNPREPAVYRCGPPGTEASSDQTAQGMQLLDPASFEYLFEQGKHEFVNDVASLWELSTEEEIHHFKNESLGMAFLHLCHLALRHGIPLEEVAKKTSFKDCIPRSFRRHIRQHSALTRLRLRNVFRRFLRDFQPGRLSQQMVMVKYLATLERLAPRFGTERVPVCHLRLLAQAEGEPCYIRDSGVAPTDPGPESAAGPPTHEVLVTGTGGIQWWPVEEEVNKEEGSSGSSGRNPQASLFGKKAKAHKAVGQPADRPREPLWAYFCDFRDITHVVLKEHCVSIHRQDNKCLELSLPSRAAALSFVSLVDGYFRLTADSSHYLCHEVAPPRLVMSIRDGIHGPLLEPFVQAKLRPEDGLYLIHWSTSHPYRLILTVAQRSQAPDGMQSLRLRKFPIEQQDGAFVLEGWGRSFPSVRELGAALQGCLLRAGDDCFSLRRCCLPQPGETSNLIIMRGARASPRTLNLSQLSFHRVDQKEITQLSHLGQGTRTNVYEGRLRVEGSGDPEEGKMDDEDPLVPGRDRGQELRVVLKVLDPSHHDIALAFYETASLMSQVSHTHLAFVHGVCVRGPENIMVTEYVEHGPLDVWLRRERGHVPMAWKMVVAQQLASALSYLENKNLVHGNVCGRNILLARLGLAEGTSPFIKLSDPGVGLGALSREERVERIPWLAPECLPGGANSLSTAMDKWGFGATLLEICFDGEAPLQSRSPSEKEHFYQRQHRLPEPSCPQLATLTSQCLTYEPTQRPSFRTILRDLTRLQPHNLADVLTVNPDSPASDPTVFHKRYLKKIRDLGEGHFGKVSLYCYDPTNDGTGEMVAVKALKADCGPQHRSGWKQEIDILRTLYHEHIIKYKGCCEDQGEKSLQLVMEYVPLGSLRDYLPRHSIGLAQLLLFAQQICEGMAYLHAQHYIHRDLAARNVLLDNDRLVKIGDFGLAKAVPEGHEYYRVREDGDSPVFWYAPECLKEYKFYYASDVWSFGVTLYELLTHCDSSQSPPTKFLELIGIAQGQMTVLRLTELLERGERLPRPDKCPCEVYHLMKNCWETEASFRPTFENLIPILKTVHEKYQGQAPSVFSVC
Outline: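 Serum-starved NK92 cells, which natively express Tyk2 and STAT4, were pretreated for 1 h with a 10-point 4-fold dilution series from 10 μM. They were then stimulated with 30 ng/mL IL2 for 15 min. Phospho-STAT in lysates was quantified by MSD with anti-STAT4 antibodies, and IC50 was obtained from 4-parameter logistic fits.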

[5] = biological target: T3, human JAK1 kinase domain (JH1) (Homo sapiens, UniProt P23458); assay: JH1 biochemical assay for JAK1 (ADP-Glo kinase assay, recombinant JH1 catalytic domain, JAK3-342 peptide, 35 μM ATP); conditions: JH1 kinase domain, ADP-Glo
T3 construct: recombinantly generated catalytic kinase (also known as JH1) domain of human JAK1, JAK2, JAK3 and TYK2
T3 sequence (P23458 875-1153 limits assumed): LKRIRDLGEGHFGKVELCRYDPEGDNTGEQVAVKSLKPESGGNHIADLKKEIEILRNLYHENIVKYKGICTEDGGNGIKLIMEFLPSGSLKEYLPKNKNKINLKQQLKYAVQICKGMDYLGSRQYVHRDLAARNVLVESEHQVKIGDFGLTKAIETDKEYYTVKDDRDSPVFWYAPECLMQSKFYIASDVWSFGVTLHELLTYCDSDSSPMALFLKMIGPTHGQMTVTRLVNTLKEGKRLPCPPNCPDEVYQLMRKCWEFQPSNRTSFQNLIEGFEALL
Outline: as §1

[6] = biological target: JAK1 kinase activity on STAT3 in TF1 cells (Homo sapiens, UniProt P23458); assay: pSTAT3 cell assay (MSD; TF1 cells, 30 ng/mL IL-6 stimulation); type: cell-based; conditions: 30 ng/mL IL-6, 15 minutes
Chain of JAK1 kinase activity on STAT3 in TF1 cells (P23458 whole entry): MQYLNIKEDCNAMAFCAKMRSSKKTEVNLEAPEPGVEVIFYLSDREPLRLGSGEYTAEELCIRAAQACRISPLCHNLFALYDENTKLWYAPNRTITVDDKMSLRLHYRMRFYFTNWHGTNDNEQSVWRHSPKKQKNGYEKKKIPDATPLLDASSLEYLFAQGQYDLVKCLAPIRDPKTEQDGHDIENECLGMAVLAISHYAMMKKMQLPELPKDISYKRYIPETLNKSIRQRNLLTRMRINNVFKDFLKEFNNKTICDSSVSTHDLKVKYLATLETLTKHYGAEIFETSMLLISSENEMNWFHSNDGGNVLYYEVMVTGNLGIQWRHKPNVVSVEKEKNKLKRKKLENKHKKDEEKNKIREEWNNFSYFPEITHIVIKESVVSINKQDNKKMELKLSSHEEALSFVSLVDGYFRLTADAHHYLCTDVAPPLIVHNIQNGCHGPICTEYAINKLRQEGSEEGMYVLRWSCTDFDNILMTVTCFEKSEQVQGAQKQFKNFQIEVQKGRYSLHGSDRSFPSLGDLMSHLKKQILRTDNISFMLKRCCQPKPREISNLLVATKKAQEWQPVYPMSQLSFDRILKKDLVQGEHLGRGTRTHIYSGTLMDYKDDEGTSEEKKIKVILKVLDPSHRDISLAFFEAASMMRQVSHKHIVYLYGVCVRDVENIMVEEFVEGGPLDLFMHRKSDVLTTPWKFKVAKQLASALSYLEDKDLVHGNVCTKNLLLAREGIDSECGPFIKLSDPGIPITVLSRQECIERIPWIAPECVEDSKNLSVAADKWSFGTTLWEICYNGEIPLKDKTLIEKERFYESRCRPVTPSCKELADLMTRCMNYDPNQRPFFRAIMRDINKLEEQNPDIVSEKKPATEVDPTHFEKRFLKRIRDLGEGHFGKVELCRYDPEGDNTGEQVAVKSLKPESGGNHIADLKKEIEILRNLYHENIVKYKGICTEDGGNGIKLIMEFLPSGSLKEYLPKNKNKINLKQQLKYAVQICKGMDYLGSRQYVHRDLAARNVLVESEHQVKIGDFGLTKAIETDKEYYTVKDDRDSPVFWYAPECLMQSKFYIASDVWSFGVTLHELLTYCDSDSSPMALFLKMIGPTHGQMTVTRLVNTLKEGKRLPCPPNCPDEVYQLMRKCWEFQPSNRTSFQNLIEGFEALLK
Outline: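 Readout is pSTAT3 in lysates, quantified on an MSD plate assay using anti-STAT3 antibodies. Before lysis, TF1 cells had been serum-starved, exposed to compound for 1 hour across ten four-fold dilutions starting at 10 μM, and given IL-6 for 15 minutes.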

[7] = biological target: T4, human JAK3 kinase domain (JH1) (Homo sapiens, UniProt P52333); assay: JH1 biochemical assay for JAK3 (ADP-Glo kinase assay, recombinant JH1 catalytic domain, JAK3-974 peptide, 4 μM ATP); conditions: JH1 kinase domain, ADP-Glo
T4 construct: recombinantly generated catalytic kinase (also known as JH1) domain of human JAK1, JAK2, JAK3 and TYK2
T4 sequence (P52333 822-1111 limits assumed): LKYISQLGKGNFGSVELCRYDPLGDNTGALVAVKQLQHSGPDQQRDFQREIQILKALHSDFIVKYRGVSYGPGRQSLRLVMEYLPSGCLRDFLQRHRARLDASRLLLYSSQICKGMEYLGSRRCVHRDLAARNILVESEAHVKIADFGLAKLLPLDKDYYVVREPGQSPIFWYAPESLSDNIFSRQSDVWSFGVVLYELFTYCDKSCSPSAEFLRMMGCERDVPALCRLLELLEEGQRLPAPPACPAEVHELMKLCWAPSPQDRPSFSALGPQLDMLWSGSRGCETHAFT
Outline: as §1

pIC50 [1]: 5.30 to 6.00
pIC50 [2]: 7.70 to 8.30
pIC50 [3]: < 5.00
pIC50 [4]: < 7.00
pIC50 [5]: 5.30 to 6.00
pIC50 [6]: < 5.00
pIC50 [7]: 5.30 to 6.00
Structure (SMILES): COc1ncccc1-c1cc2c(N3C[C@@H](C)[C@@](C#N)(C4CC4)C3=O)ccnn2c1 [Example 96, (3R,4S)-3-cyclopropyl-1-(6-(2-methoxypyridin-3-yl)pyrrolo[1,2-b]pyridazin-4-yl)-4-methyl-2-oxopyrrolidine-3-carbonitrile]

pIC50 [1]: 6.00 to 7.00
pIC50 [2]: > 8.30
pIC50 [3]: 5.30 to 6.00
pIC50 [4]: < 7.00
pIC50 [5]: > 7.00
pIC50 [6]: 5.30 to 6.00
pIC50 [7]: > 7.00
Structure (SMILES): C[C@@H]1CN(c2nc(-c3cccnc3)cn3nccc23)C(=O)[C@]1(C#N)C1CC1 [Example 194, (3R,4S)-3-cyclopropyl-4-methyl-2-oxo-1-(6-(pyridin-3-yl)pyrazolo[1,5-a]pyrazin-4-yl)pyrrolidine-3-carbonitrile]

pIC50 [1]: 6.00 to 7.00
pIC50 [2]: > 8.30
pIC50 [3]: 5.00 to 5.30
pIC50 [4]: 7.00 to 7.30
pIC50 [5]: > 7.00
pIC50 [6]: 5.30 to 6.00
pIC50 [7]: 6.00 to 7.00
Structure (SMILES): C[C@@H]1CN(c2ccnn3cc(-c4ccc(=O)n(C)c4)cc23)C(=O)[C@]1(C#N)C1CC1 [Example 83, (3R,4S)-3-cyclopropyl-4-methyl-1-(6-(1-methyl-6-oxo-1,6-dihydropyridin-3-yl)pyrrolo[1,2-b]pyridazin-4-yl)-2-oxopyrrolidine-3-carbonitrile]

pIC50 [1]: > 7.00
pIC50 [2]: > 8.30
pIC50 [3]: 5.30 to 6.00
pIC50 [4]: 7.30 to 7.70
pIC50 [5]: > 7.00
pIC50 [6]: 5.30 to 6.00
pIC50 [7]: > 7.00
Structure (SMILES): C[C@@H]1CN(c2ccnn3cc(-c4cnn(C5COC5)c4)cc23)C(=O)[C@]1(C#N)C1CC1 [Example 97, (3R,4S)-3-cyclopropyl-4-methyl-1-(6-(1-(oxetan-3-yl)-1H-pyrazol-4-yl)pyrrolo[1,2-b]pyridazin-4-yl)-2-oxopyrrolidine-3-carbonitrile]

The remaining lines, values behind:

Structure (SMILES): C[C@@H]1CN(c2nc(-c3ccnc(C#N)c3)cn3nccc23)C(=O)[C@]1(C#N)C1CC1 [Example 197, 4-(4-((3R,4S)-3-cyano-3-cyclopropyl-4-methyl-2-oxopyrrolidin-1-yl)pyrazolo[1,5-a]pyrazin-6-yl)picolinonitrile]
pIC50 [1]: 6.00 to 7.00
pIC50 [2]: 7.70 to 8.30
pIC50 [3]: < 5.00
pIC50 [4]: < 7.00
pIC50 [5]: > 7.00
pIC50 [6]: 5.30 to 6.00
pIC50 [7]: > 7.00

Structure (SMILES): C[C@@H]1CN(c2ccnn3cc(-c4cc5ccccn5n4)cc23)C(=O)[C@]1(C#N)C1CC1 [Example 104, (3R,4S)-3-cyclopropyl-4-methyl-2-oxo-1-(6-(pyrazolo[1,5-a]pyridin-2-yl)pyrrolo[1,2-b]pyridazin-4-yl)pyrrolidine-3-carbonitrile trifluoroacetate]
pIC50 [1]: 6.00 to 7.00
pIC50 [2]: > 8.30
pIC50 [3]: 5.00 to 5.30
pIC50 [4]: < 7.00
pIC50 [5]: 6.00 to 7.00
pIC50 [6]: 5.30 to 6.00
pIC50 [7]: 6.00 to 7.00

Structure (SMILES): COc1cc(-c2cc3c(N4CC[C@@](C#N)(C5CC5)C4=O)ccnc3[nH]2)ccn1 [Example 3, (S)-3-cyclopropyl-1-(2-(2-methoxypyridin-4-yl)-1H-pyrrolo[2,3-b]pyridin-4-yl)-2-oxopyrrolidine-3-carbonitrile]
pIC50 [1]: > 7.00
pIC50 [2]: > 8.30
pIC50 [3]: 5.30 to 6.00
pIC50 [4]: 7.30 to 7.70
pIC50 [5]: > 7.00
pIC50 [6]: 6.00 to 7.00
pIC50 [7]: > 7.00
